According to patent US20080227851A1, “L[…] L[…]” (priority 2007, published 2008):
Values after ≈ are worked out from the molar mass of the structure shown.

Key:
[1] = tested on: MDA-MB-435; conditions: cited from earlier work
[2] = tested on: KB cells; conditions: cited from earlier work
[3] = tested on: SKVLB-1; conditions: cited from earlier work; for Resistance factor (SKVLB-1/SK-OV-3): ratio of IC50 SKVLB-1/SK-OV-3
[4] = tested on: SK-OV-3 (ovarian carcinoma) cell line; conditions: cited from earlier work
[5] = tested on: A10 cells; conditions: 2-20 μM; cited from earlier work
[6] = tested on: purified tubulin; conditions: cited from earlier work
[7] = tested on: tubulin polymer; conditions: radiolabeled Taxol; cited from earlier work
[8] = tested on: human umbilical vein endothelial cells (HUVEC); conditions: cited from earlier work
[9] = tested on: MDA-MB-435 (human breast adenocarcinoma) cell line; conditions: cited from earlier work
[10] = 0.01 N solution of HCl in acetone; cited from earlier work
[11] = tested on: human umbilical vein endothelial cells (HUVEC); conditions: read-out: IC50, inhibition of HUVEC proliferation; cited from earlier work
[12] = tested on: human breast carcinoma MDA-MB-435; assay: sulforhodamine assay, proliferation of human tumor cells, MDA-MB-435; format: cell-based; conditions: MDA-MB-435, sulforhodamine assay
Experimental: Laulimalide analogs disclosed herein were evaluated for the ability to inhibit the proliferation of human tumor cells using the sulforhodamine assay format (Mooberry et al., Cancer Research, 1999, 59, 653-660). The two cells lines selected were the human breast carcinoma MDA-MB-435 and the corresponding MDR cell line NCI/ADR, which overexpresses the PGP efflux pump protein.

[13] = SKVLB-1 (P-gp overexpressing MDR)

Row | Compound | IC50 [1] [nM] | IC50, cytotoxic to KB cells [2] [µg/mL] | IC50 [3, 13] [nM] | Resistance factor (SKVLB-1/SK-OV-3) [3] | IC50 [4] [nM] | microtubule bundling [5] | polymerization of purified tubulin [6] | competition with Taxol binding to tubulin polymer [7] | concentration inhibiting tubule formation and VEGF-induced HUVEC migration [8] | cell cycle arrest [9] | time to complete acid-catalyzed decomposition to isolaulimalide [10] | IC50 [11] [nM] | IC50 [12] [nM] | IC50 (nM) [3, 13]
1 | C=C1C[C@H](C)C[C@@H]2CC=C[C@@H](C/C=C\C(=O)O[C@H]3C[C@@H](O[C@H]3/C=C/[C@@H]3CC(C)=CCO3)[C@@H](O)[C@@H](O)C1)O2 [Isolaulimalide, isolaulimalide] | 1970 ± 97 | > 0.2 | 2650 ± 1380 | 1.03 | 2570 ± 290 | no microtubule bundles were observed | – | – | – | – | – | – | – | –
2 | C=C1C[C@H](C)C[C@@H]2CC=C[C@@H](C/C=C\C(=O)O[C@H]([C@@H](O)/C=C/[C@@H]3CC(C)=CCO3)C[C@@H]3O[C@H]3[C@@H](O)C1)O2 [Laulimalide, laulimalide] | 5.73 ± 0.58 | 0.015 (≈ 0.0291 µM) | 1210 ± 490 | 105 | 11.5 ± 0.53 | caused bundling of microtubules similar to that induced by Taxol | caused the polymerization of purified tubulin | does not compete with Taxol | subnanomolar | cell cycle arrest at the G2/M transition | four | 4 | 5.7 ± 0.6 | –
3 | CC(=O)O[C@H]1C(=O)[C@@]2(C)[C@H]([C@H](OC(=O)c3ccccc3)[C@]3(O)C[C@H](OC(=O)[C@H](O)[C@@H](NC(=O)c4ccccc4)c4ccccc4)C(C)=C1C3(C)C)[C@]1(OC(C)=O)CO[C@@H]1C[C@@H]2O [Taxol, paclitaxel] | 1.02 ± 0.25 | – | > 100000 | >58480 | 1.71 ± 1.07 | – | – | – | – | – | – | – | – | completely ineffective
